# Measurements: patent publication US20240240226A1, “FLUOROGENIC ASSAY FOR RAPID SCREENING OF BACTERIAL BETA-LACTAMASE ACTIVITY” (The Board of Trustees of the Leland Stanford Junior …, priority 2021, published 2024)
# Several values for one entry are separate records, joined by “and”; a condition that tells them apart may be missing. Equal entries are not always repeated.
# What was measured:
# E. coli/IMP-1 = experiment: CDA/H2O2 detection of live E. coli expressing IMP-1 carbapenemase; type: cell-based; details: H2O2 1 mM, within 2 hours
# Procedure: FIG. 3 illustrates the characterization of CDA with HRP, H2O2, E. coli expressing TEM-1 Bla (E. coli/TEM-1) and IMP-1 carbapenemase (E. coli/IMP-1), and K. pneumoniae expressing KPC carbapenemase (K. pneumoniae/KPC). a) Fluorescence enhancement of CDA incubated with different concentrations of E. coli expressing TEM-1 Bla. b) Fluorescence enhancement of CDA; HRP (1 unit/mL), H2O2 (1 μM), and either viable E. coli expressing TEM-1 Bla or bacterial lysate extracted from equal c.f.u. per milliliter. c) Fluorescence enhancement of CDA incubated with different concentrations of E. coli expressing TEM-1 Bla (H2O2, 1 mM). d) Fluorescent intensity of E. coli and E. coli/TEM-1 preincubated with CDA for 20 hours upon addition of H2O2 (500 μM) for 5 min. Error bars represent ±SD, n=3. * p<0.0332; **p<0.0021, ****p<0.0001, ns: not significant. e) Fluorescence enhancement of CDA incubated with different concentrations of E. coli expressing IMP-1 carbapenemase in the presence of H2O2 (1 mM). f) Fluorescence enhancement of CDA incubated with different concentrations of K. pneumoniae expressing KPC carbapenemase (H2O2, 1 mM). All the studies were duplicated at room temperature with PBS (pH=7.05) as the buffer unless other indicated. The working concentration of CDA was 10 μM. […] Data were collected on a Tecan Safire microplate reader with excitation at 570 nm and emission at 600 nm. […]
# [1] = test system: β-lactamase producing bacteria; experiment: Two-step filtration CDA/H2O2 assay of bacteria in synthetic urine; type: cell-based, E. coli, K. pneumoniae, E. cloacae, S. marcescens; details: for bacteria concentration in urine detectable: two-step filtration, 250-fold enrichment, H2O2 1 mM
# Procedure: FIG. 4 illustrates the detection of lactam-resistant bacteria in urine samples. a) Illustration of the workflow in bacteria isolation and concentration from a urine sample for detection. The sample is first filtrated by a 5-μm filter to trap cells and large debris followed by a 0.22-μm filter to trap bacteria. The 0.22-μm filter is washed once before PBS/H2O2 (1 mM) is directed through the 0.22-μm filter in the opposite direction with a new syringe to recover the concentrated bacteria for detection in a plate reader. b) Longitudinal monitoring of fluorescence enhancement with CDA and concentrated E. coli, K. pneumoniae, K. pneumoniae/KPC, E. coli/TEM-1, E. coli/IMP-1, E. coli/KPC-3, E. cloacae/IMP, S. marcescens/SME, and E. coli/OXA-48 in the presence of H2O2 (1 mM). Star* indicate clinical isolates. The study was duplicated at room temperature with PBS as the buffer. The signal of CDA alone in PBS containing H2O2 (1 mM) was subtracted and the absolute values were plotted. The working concentration of CDA was 10 μM. Data were collected on a Tecan Safire microplate reader with excitation at 570 nm and emission at 600 nm. A.U. indicates arbitrary units.
# To develop an easy-to-use, point-of-care assay for screening cephalosporin and carbapenem resistance, a simple two-step filtration method was employed (FIG. 26) to prepare and concentrate pathogenic bacteria, similar to a procedure applied for improving culture-based AST previously (Avesar et al., Procs. Nat. Acad. Sci. U.S.A, 2017, 114, E5787-E5795). […] The 5-micron filter would trap particles including cells and large debris, and bacteria would be collected by the 0.22-micron filter and washed by PBS. A reverse elution with PBS containing 1 mM H2O2 allowed immediate high-throughput analysis by a plate reader in a 96-well plate precoated with CDA. […] 50 mL of synthetic urine spiked with bacteria could be concentrated to approximately 200 μL ready-to-use suspension within a few minutes; polypropylene filters recover bacteria more efficiently (>90%) than commonly used nylon filters (FIG. 27). […]
# TEM-1 Bla = molecular target: T1, TEM-1 Bla (Escherichia coli, UniProt P62593); experiment: CDA fluorescence turn-on with recombinant TEM-1 Bla, esterase and H2O2; type: biochemical
# T1 construct: TEV(Cys) (TEV site / Cys element as named in the plasmid); made in house; host or cells: E. coli (BL21 or TOP10)
# T1 sequence (P62593 24-286 limits assumed): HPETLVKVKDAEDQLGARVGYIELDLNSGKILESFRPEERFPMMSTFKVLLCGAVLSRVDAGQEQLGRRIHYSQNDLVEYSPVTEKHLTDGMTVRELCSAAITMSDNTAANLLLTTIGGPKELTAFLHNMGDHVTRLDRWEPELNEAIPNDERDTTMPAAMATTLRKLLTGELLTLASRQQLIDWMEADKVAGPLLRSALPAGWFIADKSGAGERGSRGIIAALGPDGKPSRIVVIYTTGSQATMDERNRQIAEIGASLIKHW
smiles,measurement,setting,value
"CC(=O)Oc1ccc2c(c1)Oc1cc(OC(C)=O)ccc1N2C(=O)OCc1ccc(SCC2=C(C(=O)O)N3C(=O)[C@@H](NC(=O)Cc4ccccc4)[C@H]3SC2)cc1 [CDA, 3-(((4-(((3,7-diacetoxy-10H-phenoxazine-10-carbonyl)oxy)methyl)phenyl)thio)methyl)-8-oxo-7-(2-phenylacetamido)-5-thia-1-azabicyclo[4.2.0]oct-2-ene-2-carboxylic acid]",bacteria concentration detected,E. coli/IMP-1,105 c.f.u./mL
same,fluorescent signal over time,"[1]; all β-lactamase producing bacteria, after 250-fold enrichment",time dependent increase of fluorescent signal
same,bacteria concentration in urine detectable,[1]; within 1 hour,10^5 c.f.u./mL
same,bacteria concentration in urine detectable,"[1]; within 2 hours, room temperature",10^3 c.f.u./mL and 10^4 c.f.u./mL
same,minimum CDA concentration required for reporting β-lactamase/esterase activity,"TEM-1 Bla; esterase 1 μg/mL, TEM-1 Bla 100 nM, H2O2 1 mM",100 nM
same,fluorescence with TEM-1 Bla and esterase without H2O2,"TEM-1 Bla; no H2O2, oxidation by dissolved oxygen",displayed fluorescence turn-on
